{"source": "patent US12590118B2", "about": "“Salt and crystal form of steroid derivative regulator” (Shanghai Hansoh Biomedical Co., Ltd., priority 2019, dated 2026)", "experiment": "Crystal form stability experiment (XRPD)", "format": "physicochemical", "description": "X-ray powder diffraction assay was carried out, and the obtained data was compared with the initial data."}
{"smiles": "C[C@@H]1C[C@H](C(=O)Cn2ccc(C#N)n2)[C@@]2(C)CC[C@H]3[C@@H](CC[C@@H]4C[C@](C)(O)CC[C@@H]43)[C@H]12", "note": "[Crystal form I, 1-(2-((3R,5R,8R,9R,10S,13S,14S,15R,17S)-3-Hydroxy-3,13,15-trimethylhexadecahydro-1H-cyclopenta[a]phenanthren-17-yl)-2-oxoethyl)-1H-pyrazole-3-carbonitrile]", "values": [{"measurement": "X-ray powder diffraction peak No. 6", "setting": "40° C., 5 days", "result": 17.3}, {"measurement": "X-ray powder diffraction peak No. 7", "setting": "40° C., 5 days", "result": 20.1}, {"measurement": "X-ray powder diffraction peak No. 8", "setting": "40° C., 5 days", "result": 20.5}, {"measurement": "X-ray powder diffraction peak No. 9", "setting": "40° C., 5 days", "result": 22.1}, {"measurement": "X-ray powder diffraction peak No. 10", "setting": "40° C., 5 days", "result": 23.8}, {"measurement": "X-ray powder diffraction peak No. 11", "setting": "40° C., 5 days", "result": 38.3}, {"measurement": "X-ray powder diffraction peak No. 1", "setting": "40° C., 10 days", "result": 7.3}, {"measurement": "X-ray powder diffraction peak No. 2", "setting": "40° C., 10 days", "result": 11.0}, {"measurement": "X-ray powder diffraction peak No. 3", "setting": "40° C., 10 days", "result": 11.8}, {"measurement": "X-ray powder diffraction peak No. 4", "setting": "40° C., 10 days", "result": 12.5}, {"measurement": "X-ray powder diffraction peak No. 5", "setting": "40° C., 10 days", "result": 16.6}, {"measurement": "X-ray powder diffraction peak No. 6", "setting": "40° C., 10 days", "result": 17.3}, {"measurement": "X-ray powder diffraction peak No. 7", "setting": "40° C., 10 days", "result": 20.2}, {"measurement": "X-ray powder diffraction peak No. 8", "setting": "40° C., 10 days", "result": 20.5}, {"measurement": "X-ray powder diffraction peak No. 9", "setting": "40° C., 10 days", "result": 21.9}, {"measurement": "X-ray powder diffraction peak No. 10", "setting": "40° C., 10 days", "result": 23.8}, {"measurement": "X-ray powder diffraction peak No. 11", "setting": "40° C., 10 days", "result": 38.2}, {"measurement": "X-ray powder diffraction peak No. 1", "setting": "40° C., 30 days", "result": 7.2}, {"measurement": "X-ray powder diffraction peak No. 2", "setting": "40° C., 30 days", "result": 11.0}, {"measurement": "X-ray powder diffraction peak No. 3", "setting": "40° C., 30 days", "result": 11.8}, {"measurement": "X-ray powder diffraction peak No. 4", "setting": "40° C., 30 days", "result": 12.5}, {"measurement": "X-ray powder diffraction peak No. 5", "setting": "40° C., 30 days", "result": 16.6}, {"measurement": "X-ray powder diffraction peak No. 6", "setting": "40° C., 30 days", "result": 17.3}, {"measurement": "X-ray powder diffraction peak No. 7", "setting": "40° C., 30 days", "result": 20.1}, {"measurement": "X-ray powder diffraction peak No. 8", "setting": "40° C., 30 days", "result": 20.5}, {"measurement": "X-ray powder diffraction peak No. 9", "setting": "40° C., 30 days", "result": 22.0}, {"measurement": "X-ray powder diffraction peak No. 10", "setting": "40° C., 30 days", "result": 23.7}, {"measurement": "X-ray powder diffraction peak No. 11", "setting": "40° C., 30 days", "result": 38.2}, {"measurement": "X-ray powder diffraction peak No. 1", "setting": "60° C., 5 days", "result": 7.1}, {"measurement": "X-ray powder diffraction peak No. 2", "setting": "60° C., 5 days", "result": 10.9}, {"measurement": "X-ray powder diffraction peak No. 3", "setting": "60° C., 5 days", "result": 11.7}, {"measurement": "X-ray powder diffraction peak No. 4", "setting": "60° C., 5 days", "result": 12.4}, {"measurement": "X-ray powder diffraction peak No. 5", "setting": "60° C., 5 days", "result": 16.5}, {"measurement": "X-ray powder diffraction peak No. 6", "setting": "60° C., 5 days", "result": 17.2}, {"measurement": "X-ray powder diffraction peak No. 7", "setting": "60° C., 5 days", "result": 20.0}, {"measurement": "X-ray powder diffraction peak No. 8", "setting": "60° C., 5 days", "result": 20.7}, {"measurement": "X-ray powder diffraction peak No. 9", "setting": "60° C., 5 days", "result": 22.0}, {"measurement": "X-ray powder diffraction peak No. 10", "setting": "60° C., 5 days", "result": 24.0}, {"measurement": "X-ray powder diffraction peak No. 11", "setting": "60° C., 5 days", "result": 38.2}, {"measurement": "X-ray powder diffraction peak No. 1", "setting": "60° C., 10 days", "result": 7.2}, {"measurement": "X-ray powder diffraction peak No. 2", "setting": "60° C., 10 days", "result": 10.9}, {"measurement": "X-ray powder diffraction peak No. 3", "setting": "60° C., 10 days", "result": 11.7}, {"measurement": "X-ray powder diffraction peak No. 4", "setting": "60° C., 10 days", "result": 12.4}, {"measurement": "X-ray powder diffraction peak No. 5", "setting": "60° C., 10 days", "result": 16.5}, {"measurement": "X-ray powder diffraction peak No. 6", "setting": "60° C., 10 days", "result": 17.2}, {"measurement": "X-ray powder diffraction peak No. 7", "setting": "60° C., 10 days", "result": 20.1}, {"measurement": "X-ray powder diffraction peak No. 8", "setting": "60° C., 10 days", "result": 20.7}, {"measurement": "X-ray powder diffraction peak No. 9", "setting": "60° C., 10 days", "result": 22.0}, {"measurement": "X-ray powder diffraction peak No. 10", "setting": "60° C., 10 days", "result": 24.0}, {"measurement": "X-ray powder diffraction peak No. 11", "setting": "60° C., 10 days", "result": 38.2}, {"measurement": "X-ray powder diffraction peak No. 1", "setting": "60° C., 30 days", "result": 7.2}, {"measurement": "X-ray powder diffraction peak No. 2", "setting": "60° C., 30 days", "result": 11.0}, {"measurement": "X-ray powder diffraction peak No. 3", "setting": "60° C., 30 days", "result": 11.8}, {"measurement": "X-ray powder diffraction peak No. 4", "setting": "60° C., 30 days", "result": 12.5}, {"measurement": "X-ray powder diffraction peak No. 5", "setting": "60° C., 30 days", "result": 16.6}, {"measurement": "X-ray powder diffraction peak No. 6", "setting": "60° C., 30 days", "result": 17.3}, {"measurement": "X-ray powder diffraction peak No. 7", "setting": "60° C., 30 days", "result": 20.1}, {"measurement": "X-ray powder diffraction peak No. 8", "setting": "60° C., 30 days", "result": 20.4}, {"measurement": "X-ray powder diffraction peak No. 9", "setting": "60° C., 30 days", "result": 21.8}, {"measurement": "X-ray powder diffraction peak No. 10", "setting": "60° C., 30 days", "result": 23.8}, {"measurement": "X-ray powder diffraction peak No. 11", "setting": "60° C., 30 days", "result": 38.2}, {"measurement": "X-ray powder diffraction peak No. 1", "setting": "Light, 5 days", "result": 7.3}, {"measurement": "X-ray powder diffraction peak No. 2", "setting": "Light, 5 days", "result": 11.0}, {"measurement": "X-ray powder diffraction peak No. 3", "setting": "Light, 5 days", "result": 11.9}, {"measurement": "X-ray powder diffraction peak No. 4", "setting": "Light, 5 days", "result": 12.5}, {"measurement": "X-ray powder diffraction peak No. 5", "setting": "Light, 5 days", "result": 16.6}, {"measurement": "X-ray powder diffraction peak No. 6", "setting": "Light, 5 days", "result": 17.3}, {"measurement": "X-ray powder diffraction peak No. 7", "setting": "Light, 5 days", "result": 20.1}, {"measurement": "X-ray powder diffraction peak No. 8", "setting": "Light, 5 days", "result": 20.6}, {"measurement": "X-ray powder diffraction peak No. 9", "setting": "Light, 5 days", "result": 22.1}, {"measurement": "X-ray powder diffraction peak No. 10", "setting": "Light, 5 days", "result": 23.9}, {"measurement": "X-ray powder diffraction peak No. 11", "setting": "Light, 5 days", "result": 38.3}, {"measurement": "X-ray powder diffraction peak No. 1", "setting": "Light, 10 days", "result": 7.3}, {"measurement": "X-ray powder diffraction peak No. 2", "setting": "Light, 10 days", "result": 11.1}, {"measurement": "X-ray powder diffraction peak No. 3", "setting": "Light, 10 days", "result": 11.9}, {"measurement": "X-ray powder diffraction peak No. 4", "setting": "Light, 10 days", "result": 12.5}, {"measurement": "X-ray powder diffraction peak No. 5", "setting": "Light, 10 days", "result": 16.7}, {"measurement": "X-ray powder diffraction peak No. 6", "setting": "Light, 10 days", "result": 17.3}, {"measurement": "X-ray powder diffraction peak No. 7", "setting": "Light, 10 days", "result": 20.2}, {"measurement": "X-ray powder diffraction peak No. 8", "setting": "Light, 10 days", "result": 20.5}, {"measurement": "X-ray powder diffraction peak No. 9", "setting": "Light, 10 days", "result": 21.9}, {"measurement": "X-ray powder diffraction peak No. 10", "setting": "Light, 10 days", "result": 23.9}, {"measurement": "X-ray powder diffraction peak No. 11", "setting": "Light, 10 days", "result": 38.3}, {"measurement": "crystal form stability by XRPD (in words)", "setting": "light, 40° C., 60° C., 25° C./RH75%, 25° C./RH90%, 5, 10 and 30 days", "result": "No crystal form conversion had occurred"}]}
